Laboratory results: BindingDB's records for doi:10.1111/cbdd.12016 (Peking University Health Science Center, 2012)

Target: Beta-secretase 1 (Homo sapiens, UniProt P56817)
Assay: Fluorescence Resonance Energy Transfer (FRET) Assay
Description: BACE1 inhibitory evaluation was carried out using a Fluorescence Resonance Energy Transfer (FRET) assay kit supplied by PanVera (kit P2985, Madison, WI, USA).

Chain of Beta-secretase 1 (P56817 whole entry): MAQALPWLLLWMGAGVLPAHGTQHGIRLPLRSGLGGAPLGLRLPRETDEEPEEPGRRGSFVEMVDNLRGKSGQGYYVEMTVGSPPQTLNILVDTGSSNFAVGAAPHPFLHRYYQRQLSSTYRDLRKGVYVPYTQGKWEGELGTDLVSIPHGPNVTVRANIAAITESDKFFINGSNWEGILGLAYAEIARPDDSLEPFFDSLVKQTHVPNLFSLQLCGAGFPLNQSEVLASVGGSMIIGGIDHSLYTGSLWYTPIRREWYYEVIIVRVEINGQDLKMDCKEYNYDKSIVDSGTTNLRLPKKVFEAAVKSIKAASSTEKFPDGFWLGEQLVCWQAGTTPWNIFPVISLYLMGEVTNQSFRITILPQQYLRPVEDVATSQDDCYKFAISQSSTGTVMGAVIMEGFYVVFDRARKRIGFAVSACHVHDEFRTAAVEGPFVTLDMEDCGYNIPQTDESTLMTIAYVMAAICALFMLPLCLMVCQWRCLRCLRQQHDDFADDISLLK

**Q.** For CCCOc1cccc(-c2cc(Oc3ccccc3)cc(C(=N)N)c2)c1 [Benzimidamide, 6a], which IC50 is on record?
**A.** The IC50 was 8.02 µM.

**Q.** How did the IC50 turn out when CCCCOc1cccc(-c2cc(Oc3ccccc3)cc(C(=N)N)c2)c1 [Benzimidamide, 6b] was run?
**A.** The IC50 was 7.03 µM.

**Q.** With CCCOc1cccc(-c2cc(Oc3ccccc3F)cc(C(=N)N)c2)c1 [Benzimidamide, 6c] as the molecule, how does the IC50 read?
**A.** The IC50 was 4.36 µM.

**Q.** How did the IC50 turn out when CCCCOc1cccc(-c2cc(Oc3ccccc3F)cc(C(=N)N)c2)c1 [Benzimidamide, 6d] was run?
**A.** Its IC50 is 3.35 µM.

**Q.** How did the IC50 turn out when CCCOc1cccc(-c2cc(C#N)cc(Oc3ccccc3F)c2)c1 [Benzonitrile, 5c] was run?
**A.** The IC50 was 80.3 µM.

**Q.** With CCCCOc1cccc(-c2cc(C#N)cc(Oc3ccccc3F)c2)c1 [Benzonitrile, 5d] as the molecule, how does the IC50 read?
**A.** The IC50 was 9.35 µM.
